Publication PMC6680717, “Design, Synthesis and Biological Evaluation of Novel Coumarin-Based Hydroxamate Derivatives as Histone Deacetylase (Hdac) Inhibitors with Antitumor Activities” (Molecules, 2019)

Legend:
[1] = biological target: T1, recombinant HDAC1 (Homo sapiens, UniProt Q13547); assay: HDAC1 inhibitory assay (protease-coupled, Ac-peptide-AMC fluorescence); format: biochemical; settings: for IC50: recombinant HDAC1, n ≥ 3; for times greater potency than SAHA, HDAC1: ratio of IC50 versus SAHA
T1 construct: purchased BPS Biosciences
Experimental: The HDAC1 enzyme activity in vitro was determined by the protease-coupled assay. Different concentrations of compounds were incubated with recombinant HDAC1 (BPS Biosciences, San Diego, CA, USA) at room temperature for 15 min, followed by adding trypsin, as well as Ac-peptide-AMC substrates, to initiate the reaction in a Tris-based assay buffer. […] The IC50 values were calculated by GraphPad Prism software (La Jolla, CA, USA). (for details see Supplementary Materials)

[2] = test system: A549 cells; assay: In vitro anti-proliferation assay (MTT), A549; format: cell-based; settings: Homo sapiens, 48 h, read-out: Anti-proliferative activity IC50, A549
Experimental: (§1) The in vitro anti-proliferation assay was operated as previously described. In brief, the human cancer cell lines, A549, HeLa and HepG2, were seeded into 96-well plates at the appropriate cell densities. After incubation for 24 h, the cells were treated with various concentrations of tested compounds for 48 h. Then, the 3–(4,5–dimethyl–2-thiazolyl)–2,5–diphenyl–2–H–tetrazolium bromide (MTT) solution was added and co-incubated for another 4 h. The reactions were stopped by the addition of DMSO solution, and the samples were measured at 490 nm by a microplate spectrophotometer (Thermo Fisher Scientific, Waltham, MA USA). The IC50 was calculated using GraphPad Software. Three independent experiments were carried out in triplicate. (for details see Supplementary Materials)

[3] = test system: Hela cells; assay: In vitro anti-proliferation assay (MTT), Hela; format: cell-based; settings: Homo sapiens, 48 h, read-out: Anti-proliferative activity IC50, Hela
Experimental: as §1

[4] = test system: HepG2 cells; assay: In vitro anti-proliferation assay (MTT), HepG2; format: cell-based; settings: Homo sapiens, 48 h, read-out: Anti-proliferative activity IC50, HepG2
Experimental: as §1

[5] = test system: A549 cells; assay: Cell cycle analysis (PI, flow cytometry); format: cell-based, human; settings: 24 h, result in words
Experimental: Next, we investigated whether the potent anti-proliferative activity of 10e and 11d resulted from the induction of the cell cycle arrest. […] This was evidenced by the increasing percentages of cells in the G2/M phase, accompanied by a proportionate reduction in other phases of the cell cycle.
The cell cycle analysis was carried out by estimating the DNA contents with flow cytometry. After incubation with the indicated doses of 10e or 11d for 24 h, A549 cells were fixed in 70% ice-cold ethanol, incubated overnight at –20 °C, stained with propidium iodide (PI)/Triton X-100 containing RNaseA solution for 20 min at 37 °C, and then analyzed by FACS.

[6] = biological target: HDAC2 (Homo sapiens, UniProt Q92769); assay: HDAC isoform inhibition assay, HDAC2
[7] = biological target: T2, HDAC8 (Homo sapiens, UniProt Q9BY41); assay: HDAC isoform inhibition assay, HDAC8; settings: for times greater potency than SAHA, HDAC8: ratio of IC50 versus SAHA
T2 sequence (Q9BY41 1-377): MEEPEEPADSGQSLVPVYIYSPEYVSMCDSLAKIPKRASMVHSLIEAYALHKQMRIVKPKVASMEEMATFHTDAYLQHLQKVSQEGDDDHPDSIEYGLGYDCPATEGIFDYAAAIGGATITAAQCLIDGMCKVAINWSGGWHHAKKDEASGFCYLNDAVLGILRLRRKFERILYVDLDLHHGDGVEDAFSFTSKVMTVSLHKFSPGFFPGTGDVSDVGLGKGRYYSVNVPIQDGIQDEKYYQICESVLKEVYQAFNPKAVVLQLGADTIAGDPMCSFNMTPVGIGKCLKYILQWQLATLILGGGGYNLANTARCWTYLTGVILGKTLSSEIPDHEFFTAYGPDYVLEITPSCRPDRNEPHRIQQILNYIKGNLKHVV

[8] = biological target: HDAC4 (Homo sapiens, UniProt P56524); assay: HDAC isoform inhibition assay, HDAC4
[9] = biological target: HDAC5 (Homo sapiens, UniProt Q9UQL6); assay: HDAC isoform inhibition assay, HDAC5
[10] = biological target: T3, HDAC6 (Homo sapiens, UniProt Q9UBN7); assay: HDAC isoform inhibition assay, HDAC6
T3 sequence (Q9UBN7 1-1215): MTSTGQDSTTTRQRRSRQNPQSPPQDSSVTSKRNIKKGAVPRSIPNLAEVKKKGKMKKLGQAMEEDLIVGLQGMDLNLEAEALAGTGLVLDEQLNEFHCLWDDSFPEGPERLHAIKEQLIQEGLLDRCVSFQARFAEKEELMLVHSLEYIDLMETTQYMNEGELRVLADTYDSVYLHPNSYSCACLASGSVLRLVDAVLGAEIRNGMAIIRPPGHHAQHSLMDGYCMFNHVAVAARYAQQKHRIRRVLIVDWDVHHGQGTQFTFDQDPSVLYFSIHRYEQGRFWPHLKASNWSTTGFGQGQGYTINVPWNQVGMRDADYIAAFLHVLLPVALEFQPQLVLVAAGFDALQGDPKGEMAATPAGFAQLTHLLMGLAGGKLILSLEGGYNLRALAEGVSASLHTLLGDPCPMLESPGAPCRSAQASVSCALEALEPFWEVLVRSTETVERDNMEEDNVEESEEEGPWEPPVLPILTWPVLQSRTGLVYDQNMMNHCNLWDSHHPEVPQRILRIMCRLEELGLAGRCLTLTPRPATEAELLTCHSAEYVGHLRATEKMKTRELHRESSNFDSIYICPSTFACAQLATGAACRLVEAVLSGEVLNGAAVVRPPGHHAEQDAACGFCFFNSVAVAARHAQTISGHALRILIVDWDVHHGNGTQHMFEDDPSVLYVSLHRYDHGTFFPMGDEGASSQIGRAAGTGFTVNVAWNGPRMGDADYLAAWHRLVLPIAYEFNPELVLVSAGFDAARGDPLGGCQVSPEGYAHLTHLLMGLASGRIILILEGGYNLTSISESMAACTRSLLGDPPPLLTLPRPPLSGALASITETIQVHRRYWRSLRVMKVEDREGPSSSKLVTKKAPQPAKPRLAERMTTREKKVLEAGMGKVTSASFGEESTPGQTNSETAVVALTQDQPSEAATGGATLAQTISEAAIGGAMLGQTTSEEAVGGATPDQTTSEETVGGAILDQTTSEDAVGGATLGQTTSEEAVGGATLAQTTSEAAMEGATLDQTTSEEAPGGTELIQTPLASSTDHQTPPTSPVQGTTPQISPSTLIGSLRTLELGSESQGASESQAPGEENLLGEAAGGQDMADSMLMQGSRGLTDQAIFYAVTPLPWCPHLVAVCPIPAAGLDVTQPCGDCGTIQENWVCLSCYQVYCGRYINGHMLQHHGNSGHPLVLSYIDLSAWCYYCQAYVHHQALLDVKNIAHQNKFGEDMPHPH

[11] = biological target: T4, HDAC11 (Homo sapiens, UniProt Q96DB2); assay: HDAC isoform inhibition assay, HDAC11
T4 sequence (Q96DB2 1-347): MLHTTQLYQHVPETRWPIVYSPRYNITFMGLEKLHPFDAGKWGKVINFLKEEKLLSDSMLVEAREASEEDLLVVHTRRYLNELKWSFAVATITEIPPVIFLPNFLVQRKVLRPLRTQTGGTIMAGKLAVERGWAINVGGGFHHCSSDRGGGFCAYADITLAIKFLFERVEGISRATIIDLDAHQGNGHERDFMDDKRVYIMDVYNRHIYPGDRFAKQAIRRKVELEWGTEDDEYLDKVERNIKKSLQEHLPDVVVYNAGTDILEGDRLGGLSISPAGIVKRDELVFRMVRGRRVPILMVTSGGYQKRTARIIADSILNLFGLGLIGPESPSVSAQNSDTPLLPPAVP

[12] = test system: acetylated histone H3 and H4; assay: Western blot of acetylated histone levels in A549 cells; settings: A549 cells, 0.2, 0.5 and 1.0 μM, 48 h
Experimental: The levels of acetylated histone H3 and H4 were analyzed by Western blotting assays with β–actin as the negative control. […] Briefly, human cancer cells were lysed in a lysis buffer (50 mM Tris-HCl pH 8.0, 5 mM EDTA, 100 mM NaCl, 0.5% NP-40, 1 mM PMSF), centrifuged for 10 min at 10,000 g, and the insoluble debris were discarded. Cell lysates were further analyzed with SDS-PAGE and western blotting with the indicated antibodies.

[13] = test system: A549 cells; assay: Cell apoptosis analysis (annexin V FITC/PI, flow cytometry); settings: 72 h
Experimental: The cell apoptosis analysis was measured by annexin V FITC/PI assay using the Vybrant Apoptosis Assay kit (Invitrogen, Carlsbad, CA, USA). […] After staining, 400 μL of 1X annexin-binding buffer was added, mixed gently and kept on ice. The samples were measured using a BD Biosciences FACS Aria flow cytometer.

T1 sequence (Q13547 whole entry): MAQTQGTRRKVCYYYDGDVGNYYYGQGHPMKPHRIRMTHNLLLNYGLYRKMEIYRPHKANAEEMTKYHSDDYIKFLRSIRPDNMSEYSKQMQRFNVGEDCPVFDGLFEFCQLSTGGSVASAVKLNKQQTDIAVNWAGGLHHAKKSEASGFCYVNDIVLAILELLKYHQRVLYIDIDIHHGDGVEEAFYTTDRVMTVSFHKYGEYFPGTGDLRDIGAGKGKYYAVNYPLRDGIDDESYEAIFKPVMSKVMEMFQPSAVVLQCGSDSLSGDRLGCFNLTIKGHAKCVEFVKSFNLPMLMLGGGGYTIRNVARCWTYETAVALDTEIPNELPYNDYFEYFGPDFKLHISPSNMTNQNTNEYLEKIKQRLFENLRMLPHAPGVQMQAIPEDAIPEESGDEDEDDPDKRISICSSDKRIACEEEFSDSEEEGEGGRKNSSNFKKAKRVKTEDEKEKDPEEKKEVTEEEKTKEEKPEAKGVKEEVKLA
Chain of HDAC2 (Q92769 whole entry, canonical isoform): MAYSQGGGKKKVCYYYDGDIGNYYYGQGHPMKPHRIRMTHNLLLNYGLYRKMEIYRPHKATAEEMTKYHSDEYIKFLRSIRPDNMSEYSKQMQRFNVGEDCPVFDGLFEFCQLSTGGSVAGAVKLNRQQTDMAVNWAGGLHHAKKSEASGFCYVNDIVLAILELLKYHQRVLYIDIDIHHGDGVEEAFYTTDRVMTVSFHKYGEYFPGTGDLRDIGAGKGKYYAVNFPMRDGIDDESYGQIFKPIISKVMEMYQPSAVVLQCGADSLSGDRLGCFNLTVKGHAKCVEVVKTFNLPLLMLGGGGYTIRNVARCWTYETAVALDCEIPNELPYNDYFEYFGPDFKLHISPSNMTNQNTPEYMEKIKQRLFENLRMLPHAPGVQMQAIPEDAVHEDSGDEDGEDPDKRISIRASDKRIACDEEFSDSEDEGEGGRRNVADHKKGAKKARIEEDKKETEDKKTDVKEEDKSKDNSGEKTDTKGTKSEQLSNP
Chain of HDAC5 (Q9UQL6 whole entry, canonical isoform): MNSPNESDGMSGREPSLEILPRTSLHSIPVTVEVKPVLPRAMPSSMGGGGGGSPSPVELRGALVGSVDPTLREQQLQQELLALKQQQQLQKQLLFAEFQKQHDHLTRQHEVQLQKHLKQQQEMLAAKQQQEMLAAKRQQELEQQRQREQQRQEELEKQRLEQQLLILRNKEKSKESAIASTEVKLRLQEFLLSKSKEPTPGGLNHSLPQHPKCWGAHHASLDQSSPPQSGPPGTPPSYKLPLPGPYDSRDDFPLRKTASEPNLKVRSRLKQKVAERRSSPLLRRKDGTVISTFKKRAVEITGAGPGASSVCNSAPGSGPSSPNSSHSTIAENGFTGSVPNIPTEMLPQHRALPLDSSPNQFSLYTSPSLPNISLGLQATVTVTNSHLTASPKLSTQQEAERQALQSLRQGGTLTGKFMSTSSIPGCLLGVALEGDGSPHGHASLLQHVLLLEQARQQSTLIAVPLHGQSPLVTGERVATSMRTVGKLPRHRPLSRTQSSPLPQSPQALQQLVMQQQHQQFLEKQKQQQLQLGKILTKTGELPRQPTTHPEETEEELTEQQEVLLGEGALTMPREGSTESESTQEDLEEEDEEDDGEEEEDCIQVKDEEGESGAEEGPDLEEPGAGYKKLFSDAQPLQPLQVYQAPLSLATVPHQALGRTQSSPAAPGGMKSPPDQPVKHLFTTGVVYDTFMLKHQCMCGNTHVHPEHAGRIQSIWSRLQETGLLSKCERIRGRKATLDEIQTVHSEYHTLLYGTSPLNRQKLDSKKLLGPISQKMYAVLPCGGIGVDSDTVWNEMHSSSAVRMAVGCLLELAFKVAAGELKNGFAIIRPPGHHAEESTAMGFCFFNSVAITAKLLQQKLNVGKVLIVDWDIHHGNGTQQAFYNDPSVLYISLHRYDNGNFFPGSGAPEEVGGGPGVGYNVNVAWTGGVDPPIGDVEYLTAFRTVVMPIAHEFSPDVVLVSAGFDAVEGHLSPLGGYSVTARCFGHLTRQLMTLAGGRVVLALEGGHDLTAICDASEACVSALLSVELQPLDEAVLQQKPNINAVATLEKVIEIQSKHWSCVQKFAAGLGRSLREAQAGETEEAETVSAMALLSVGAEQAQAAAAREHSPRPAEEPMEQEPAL
Chain of HDAC4 (P56524 whole entry, canonical isoform): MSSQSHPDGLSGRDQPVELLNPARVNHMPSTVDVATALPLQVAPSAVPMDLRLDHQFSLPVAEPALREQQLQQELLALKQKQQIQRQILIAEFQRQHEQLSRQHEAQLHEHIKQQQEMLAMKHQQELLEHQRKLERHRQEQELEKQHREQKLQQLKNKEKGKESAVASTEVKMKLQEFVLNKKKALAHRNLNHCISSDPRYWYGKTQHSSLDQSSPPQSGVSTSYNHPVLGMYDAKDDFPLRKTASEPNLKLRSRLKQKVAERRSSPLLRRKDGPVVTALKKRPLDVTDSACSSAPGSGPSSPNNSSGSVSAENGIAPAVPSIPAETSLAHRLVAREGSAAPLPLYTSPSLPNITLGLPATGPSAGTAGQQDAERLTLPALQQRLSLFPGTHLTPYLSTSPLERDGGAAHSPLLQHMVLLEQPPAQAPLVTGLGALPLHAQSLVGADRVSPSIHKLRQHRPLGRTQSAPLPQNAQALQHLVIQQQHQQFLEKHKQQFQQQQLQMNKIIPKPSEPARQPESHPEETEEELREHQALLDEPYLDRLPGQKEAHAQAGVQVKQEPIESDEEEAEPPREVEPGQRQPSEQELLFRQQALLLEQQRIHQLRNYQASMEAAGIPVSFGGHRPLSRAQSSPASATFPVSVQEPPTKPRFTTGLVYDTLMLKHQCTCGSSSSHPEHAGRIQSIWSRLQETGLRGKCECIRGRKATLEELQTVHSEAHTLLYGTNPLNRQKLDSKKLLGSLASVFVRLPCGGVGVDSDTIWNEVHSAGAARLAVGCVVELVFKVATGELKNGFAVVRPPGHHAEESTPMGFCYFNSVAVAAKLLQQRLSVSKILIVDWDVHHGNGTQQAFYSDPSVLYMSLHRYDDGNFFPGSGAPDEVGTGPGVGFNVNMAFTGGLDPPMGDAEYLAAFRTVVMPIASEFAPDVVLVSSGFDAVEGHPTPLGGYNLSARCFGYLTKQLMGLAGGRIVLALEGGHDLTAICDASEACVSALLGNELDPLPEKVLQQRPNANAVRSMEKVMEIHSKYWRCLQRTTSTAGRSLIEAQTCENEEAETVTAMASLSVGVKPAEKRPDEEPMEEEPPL

SMILES: O=C(CCNc1cc(=O)oc2ccccc12)NO [Compound 10a, N–hydroxy–3–((2–oxo–2H–chromen–4–yl)amino)propanamide]
- IC50 [1]: > 100 nM

SMILES: O=C(CCCCCNc1cc(=O)oc2ccccc12)NO [Compound 10b, N–hydroxy–6–((2–oxo–2H–chromen–4–yl)amino)hexanamide]
- IC50 [1]: 9.11 ± 0.2 nM

SMILES: COc1ccc2c(NCCCCCC(=O)NO)cc(=O)oc2c1 [Compound 10c, N–hydroxy–6–((7–methoxy–2–oxo–2H–chromen–4–yl)amino)hexanamide]
- IC50 [1]: 6.43 ± 0.16 nM

SMILES: COc1ccc2c(NCCCCCCC(=O)NO)cc(=O)oc2c1 [Compound 10d, N–hydroxy–7–((7–methoxy–2–oxo–2H–chromen–4–yl)amino)heptanamide]
- IC50 [1]: 2.51 ± 0.12 nM

SMILES: COc1ccc2c(NCCCCCCCC(=O)NO)cc(=O)oc2c1 [Compound 10e, N–hydroxy–8–((7–methoxy–2–oxo–2H–chromen–4–yl)amino)octanamide]
- IC50 [1]: 0.24 ± 0.01 nM
- IC50 [2]: 1960 ± 740 nM
- IC50 [3]: 1310 ± 860 nM
- IC50 [4]: > 10 µM
- cell cycle arrest in A549 cells [5]: significant induction of the G2/M phase cell cycle arrest in a concentration-dependent manner
- IC50 [6]: 0.68 ± 0.05 nM
- times greater potency than SAHA, HDAC2 ([6]; ratio of IC50 versus SAHA): ~27 times
- IC50 [7]: 16.9 ± 0.01 nM
- times greater potency than SAHA, HDAC8 [7]: ~12 times
- IC50 [8]: > 1000 nM
- IC50 [9]: > 1000 nM
- IC50 [10]: 5.4 ± 1 nM
- IC50 [11]: > 1000 nM
- expression of acetylated histone H3 and H4 [12]: increase the expression of acetylated histone H3 and H4 in a dose-dependent manner
- apoptosis induced in A549 cancer cells ([13]; 1.25 μM): 51.9%
- apoptosis induced in A549 cancer cells ([13]; 2.5 μM): 84.4%
- apoptosis induced in A549 cancer cells ([13]; 5 μM): 90.3%

SMILES: COc1ccc2c(OCCCCC(=O)NO)cc(=O)oc2c1 [Compound 11a, N–hydroxy–5–((7–methoxy–2–oxo–2H–chromen–4–yl)oxy)pentanamide]
- IC50 [1]: > 100 nM

SMILES: COc1ccc2c(OCCCCCC(=O)NO)cc(=O)oc2c1 [Compound 11b, N–hydroxy–6–((7–methoxy–2–oxo–2H–chromen–4–yl)oxy)hexanamide]
- IC50 [1]: 19.4 ± 2.21 nM

SMILES: COc1ccc2c(OCCCCCCC(=O)NO)cc(=O)oc2c1 [Compound 11c, N–hydroxy–7–((7–methoxy–2–oxo–2H–chromen–4–yl)oxy)heptanamide]
- IC50 [1]: 5.61 ± 0.56 nM

SMILES: COc1ccc2c(OCCCCCCCC(=O)NO)cc(=O)oc2c1 [Compound 11d, N–hydroxy–8–((7–methoxy–2–oxo–2H–chromen–4–yl)oxy)octanamide]
- IC50 [2]: 560 ± 280 nM
- IC50 [3]: 2620 ± 1530 nM
- IC50 [4]: 7.71 ± 2.07 µM
- cell cycle arrest in A549 cells [5]: significant induction of the G2/M phase cell cycle arrest in a concentration-dependent manner
- IC50 [6]: < 0.32 nM
- IC50 [7]: 1.85 ± 0.14 nM
- times greater potency than SAHA, HDAC8 [7]: ~107 times
- IC50 [8]: > 1000 nM
- IC50 [9]: > 1000 nM
- IC50 [10]: 5.67 ± 1.42 nM
- IC50 [11]: > 1000 nM
- expression of acetylated histone H3 and H4 [12]: increase the expression of acetylated histone H3 and H4 in a dose-dependent manner
- apoptosis induced in A549 cancer cells ([13]; 1.25 μM): 81.7%
- apoptosis induced in A549 cancer cells ([13]; 2.5 μM): 87.2%
- apoptosis induced in A549 cancer cells ([13]; 5 μM): 91.4%

SMILES: COc1ccc2c(OCCCCCCCCC(=O)NO)cc(=O)oc2c1 [Compound 11e, N–hydroxy–9–((7–methoxy–2–oxo–2H–chromen–4–yl)oxy)nonanamide]
- IC50 [1]: 7.33 ± 1.01 nM

SMILES: O=C(CCCCCCCOc1ccc2ccc(=O)oc2c1)NO [Compound 12a, N–hydroxy–8–((2–oxo–2H–chromen–7–yl)oxy)octanamide]
- times greater potency than SAHA, HDAC1 [1]: approximately three
- IC50 [1]: 8.72 ± 1.03 nM

SMILES: Cc1cc(=O)oc2cc(OCCCCCCCC(=O)NO)ccc12 [Compound 12b, N–hydroxy–8–((4–methyl–2–oxo–2H–chromen–7–yl)oxy)octanamide]
- times greater potency than SAHA, HDAC1 [1]: approximately three
- IC50 [1]: 6.88 ± 0.85 nM

SMILES: O=C(CCCCCCC(=O)Nc1ccccc1)NO [SAHA, vorinostat, reference compound]
- apoptosis induced in A549 cancer cells ([13]; 1.25 μM): 27.6%
- apoptosis induced in A549 cancer cells ([13]; 2.5 μM): 40.9%
- apoptosis induced in A549 cancer cells ([13]; 5 μM): 61.4%
